target: T1, Cdc25B (Homo sapiens, UniProt P30305); assay: Cdc25B phosphatase inhibition (50 μM screen, 3 pt. and 8 pt. IC-50); assay type: biochemical; conditions: Cdc25B; 3 pt. IC-50 using 1, 7 and 50 μM; read-out: IC50 (3 pt)
T1 sequence (P30305 1-580): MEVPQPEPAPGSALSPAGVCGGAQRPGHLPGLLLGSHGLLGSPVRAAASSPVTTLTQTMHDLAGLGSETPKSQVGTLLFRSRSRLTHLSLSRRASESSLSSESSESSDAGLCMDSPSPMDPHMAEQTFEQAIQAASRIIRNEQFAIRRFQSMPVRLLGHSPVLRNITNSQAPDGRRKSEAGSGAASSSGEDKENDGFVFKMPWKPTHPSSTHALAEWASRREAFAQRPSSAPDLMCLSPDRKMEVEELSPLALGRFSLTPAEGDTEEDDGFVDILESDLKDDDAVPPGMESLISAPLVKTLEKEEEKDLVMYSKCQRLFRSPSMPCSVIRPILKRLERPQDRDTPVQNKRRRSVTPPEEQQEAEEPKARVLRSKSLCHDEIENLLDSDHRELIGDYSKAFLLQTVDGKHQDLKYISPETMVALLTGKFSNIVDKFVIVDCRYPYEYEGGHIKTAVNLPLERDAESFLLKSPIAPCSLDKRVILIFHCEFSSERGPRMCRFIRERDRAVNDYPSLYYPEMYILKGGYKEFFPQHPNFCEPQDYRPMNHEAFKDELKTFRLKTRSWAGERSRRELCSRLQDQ
Procedure: Using procedures known to those skilled in the art, the compounds listed in Table 3 were screened against Cdc25A, Cdc25B, and Cdc25C at 50 μM. […] To analyze these effects further, the compounds were then screened against Cdc25B in a 3 pt. IC-50, using 1, 7 and 50 μM. Several of the compounds were also screened with an 8 pt. IC-50 process, using 0.1–10 μM, allowing determination of Hill slopes.

Point of comparison: COc1ccc2[nH]cc(C3=C(O)C(=O)C(c4c(C(C)(C)C)[nH]c5ccccc45)=C(O)C3=O)c2c1 [9H, 2-(2-tert-butyl-1H-indol-3-yl)-3,6-dihydroxy-5-(5-methoxyl-1H-indol-3-yl)-[1,4]-benzoquinone], IC50 80.3 µM. Against it:
- CC(C)(C)c1[nH]c2ccccc2c1C1=C(Cl)C(=O)C(c2c[nH]c3c(C(C)(C)C)cccc23)=C(O)C1=O [8D, 2-(2-tert-butyl-1H-indol-3-yl)-5-(7-tert-butyl-1H-indol-3-yl)-3-chloro-6-hydroxy-[1,4]-benzoquinone] — 14-fold lower, 5.8 µM
- C=CC(C)(C)c1[nH]c2ccccc2c1C1=C(O)C(=O)C(c2c[nH]c3c(CC=C(C)C)cccc23)=C(O)C1=O [8E, DAQ-B1, reference compound] — 89-fold lower, 0.9 µM
- CC(C)(C)c1[nH]c2ccccc2c1C1=C(O)C(=O)C(c2c[nH]c3ccccc23)=C(O)C1=O [8F, 2-(2-tert-butyl-1H-indol-3-yl)-3,6-dihydroxy-5-(1H-indol-3-yl)-[1,4]-benzoquinone] — 7.2-fold lower, 11.2 µM
- Cn1cc(C2=C(O)C(=O)C(c3c(C(C)(C)C)[nH]c4ccccc34)=C(O)C2=O)c2ccccc21 [8G, 2-(2-tert-butyl-1H-indol-3-yl)-3,6-dihydroxy-5-(1-methyl-1H-indol-3-yl)-[1,4]-benzoquinone] — 6.7-fold lower, 12 µM
- Cc1[nH]c2ccccc2c1C1=C(O)C(=O)C(c2c(C(C)(C)C)[nH]c3ccccc23)=C(O)C1=O [8H, 2-(2-tert-butyl-1H-indol-3-yl)-3,6-dihydroxy-5-(2-methyl-1H-indol-3-yl)-[1,4]-benzoquinone] — 14-fold lower, 5.8 µM
- CC(C)(C)c1[nH]c2ccccc2c1C1=C(O)C(=O)C(c2c(C3CC3)[nH]c3ccccc23)=C(O)C1=O [9A, 2-(2-tert-butyl-1H-indol-3-yl)-3,6-dihydroxy-5-(2-cyclopropyl-1H-indol-3-yl)-[1,4]-benzoquinone] — 14-fold lower, 5.6 µM
- CC(C)c1[nH]c2ccccc2c1C1=C(O)C(=O)C(c2c(C(C)(C)C)[nH]c3ccccc23)=C(O)C1=O [9B, 2-(2-tert-butyl-1H-indol-3-yl)-3,6-dihydroxy-5-(2-isopropyl-1H-indol-3-yl)-[1,4]-benzoquinone] — 16-fold lower, 5 µM
- CC(C)(C)c1[nH]c2ccccc2c1C1=C(O)C(=O)C(c2c(C(C)(C)C)[nH]c3ccccc23)=C(O)C1=O [9C, 2-(2-tert-butyl-1H-indol-3-yl)-3,6-dihydroxy-5-(2-tert-butyl-1H-indol-3-yl)-[1,4]-benzoquinone] — 16-fold lower, 5.1 µM
- CC(C)(C)c1[nH]c2ccccc2c1C1=C(O)C(=O)C(c2c(-c3ccccc3)[nH]c3ccccc23)=C(O)C1=O [9D, 2-(2-tert-butyl-1H-indol-3-yl)-3,6-dihydroxy-5-(2-phenyl-1H-indol-3-yl)-[1,4]-benzoquinone] — 13-fold lower, 6.1 µM
- COc1cccc2[nH]cc(C3=C(O)C(=O)C(c4c(C(C)(C)C)[nH]c5ccccc45)=C(O)C3=O)c12 [9E, 2-(2-tert-butyl-1H-indol-3-yl)-3,6-dihydroxy-5-(4-methoxy-1H-indol-3-yl)-[1,4]-benzoquinone] — 5.9-fold lower, 13.7 µM
- CC(C)(C)c1[nH]c2ccccc2c1C1=C(O)C(=O)C(c2c[nH]c3cccc(OCc4ccccc4)c23)=C(O)C1=O [9F, 2-(2-tert-butyl-1H-indol-3-yl)-3,6-dihydroxy-5-(4-benzyloxy-1H-indol-3-yl)-[1,4]-benzoquinone] — 35-fold lower, 2.3 µM
- CC(C)(C)c1[nH]c2ccccc2c1C1=C(O)C(=O)C(c2c[nH]c3ccc(F)cc23)=C(O)C1=O [9G, 2-(2-tert-butyl-1H-indol-3-yl)-3,6-dihydroxy-5-(5-fluoro-1H-indol-3-yl)-[1,4]-benzoquinone] — 9.2-fold lower, 8.7 µM
- CC(C)(C)c1[nH]c2ccccc2c1C1=C(O)C(=O)C(c2c[nH]c3ccc(OCc4ccccc4)cc23)=C(O)C1=O [10A, 2-(2-tert-butyl-1H-indol-3-yl)-3,6-dihydroxy-5-(5-benzyloxy-1H-indol-3-yl)-[1,4]-benzoquinone] — 130-fold lower, 0.6 µM
- Cc1ccc2[nH]cc(C3=C(O)C(=O)C(c4c(C(C)(C)C)[nH]c5ccccc45)=C(O)C3=O)c2c1 [10B, 2-(2-tert-butyl-1H-indol-3-yl)-3,6-dihydroxy-5-(5-methyl-1H-indol-3-yl)-[1,4]-benzoquinone] — 11-fold lower, 7.2 µM
- CC(C)(C)c1[nH]c2ccccc2c1C1=C(O)C(=O)C(c2c[nH]c3cc(F)ccc23)=C(O)C1=O [10C, 2-(2-tert-butyl-1H-indol-3-yl)-3,6-dihydroxy-5-(6-fluoro-1H-indol-3-yl)-[1,4]-benzoquinone] — 15-fold lower, 5.3 µM
- Cc1ccc2c(C3=C(O)C(=O)C(c4c(C(C)(C)C)[nH]c5ccccc45)=C(O)C3=O)c[nH]c2c1 [10D, 2-(2-tert-butyl-1H-indol-3-yl)-3,6-dihydroxy-5-(6-methyl-1H-indol-3-yl)-[1,4]-benzoquinone] — 15-fold lower, 5.3 µM
- Cc1cccc2c(C3=C(O)C(=O)C(c4c(C(C)(C)C)[nH]c5ccccc45)=C(O)C3=O)c[nH]c12 [10E, 2-(2-tert-butyl-1H-indol-3-yl)-3,6-dihydroxy-5-(7-methyl-1H-indol-3-yl)-[1,4]-benzoquinone] — 17-fold lower, 4.8 µM
- CC(C)(C)c1[nH]c2ccccc2c1C1=C(O)C(=O)C(c2c[nH]c3c(C(C)(C)C)cccc23)=C(O)C1=O [10F, 2-(2-tert-butyl-1H-indol-3-yl)-3,6-dihydroxy-5-(7-tert-butyl-1H-indol-3-yl)-[1,4]-benzoquinone] — 89-fold lower, 0.9 µM
- Cc1ccc2[nH]c(C)c(C3=C(O)C(=O)C(c4c(C(C)(C)C)[nH]c5ccccc45)=C(O)C3=O)c2c1 [10G, 2-(2-tert-butyl-1H-indol-3-yl)-3,6-dihydroxy-5-(2,5-dimethyl-1H-indol-3-yl)-[1,4]-benzoquinone] — 5.5-fold lower, 14.6 µM
- COc1ccc2[nH]c(C)c(C3=C(O)C(=O)C(c4c(C(C)(C)C)[nH]c5ccccc45)=C(O)C3=O)c2c1 [10H, 2-(2-tert-butyl-1H-indol-3-yl)-3,6-dihydroxy-5-(2-methyl-5-methoxy-1H-indol-3-yl)-[1,4]-benzoquinone] — 7-fold lower, 11.5 µM
- Cc1[nH]c2ccc(Cl)cc2c1C1=C(O)C(=O)C(c2c(C(C)(C)C)[nH]c3ccccc23)=C(O)C1=O [11A, 2-(2-tert-butyl-1H-indol-3-yl)-3,6-dihydroxy-5-(2-methyl-5-chloro-1H-indol-3-yl)-[1,4]-benzoquinone] — 9.6-fold lower, 8.4 µM
- Cn1cc(C2=C(O)C(=O)C(c3ccccc3)=C(O)C2=O)c2ccccc21 [11B, 2,5-dihydroxy-3-(1-methyl-1H-indol-3-yl)-6-phenyl-[1,4]-benzoquinone] — 10-fold lower, 7.9 µM
- Cc1[nH]c2ccccc2c1C1=C(O)C(=O)C(c2c(C)[nH]c3ccccc23)=C(O)C1=O [11C, 2,5-dihydroxy-3,6-bis(2-methyl-1H-indol-3-yl)l-[1,4]-benzoquinone] — 5.1-fold lower, 15.7 µM
- Cc1[nH]c2ccccc2c1C1=C(O)C(=O)c2cccc(O)c2C1=O [11D, 2,5-dihydoxy-3-(2-methyl-1H-indol-3-yl)-[1,4]naphthoquinone] — 4.5-fold lower, 18 µM
- CC(C)(C)c1[nH]c2ccccc2c1C1=C(O)C(=O)C(c2c(C(C)(C)C)[nH]c3ccccc23)=C(Cl)C1=O [11E, 2,5-bis(2-tert-butyl-1H-indol-3-yl)-3-chloro-6-hydroxy-[1,4]-benzoquinone] — 3.5-fold lower, 22.9 µM
- CC(C)(C)c1[nH]c2ccccc2c1C1=C(Cl)C(=O)C(c2c[nH]c3ccccc23)=C(O)C1=O [11F, 2-(2-tert-butyl-1H-indol-3-yl)-5-(1H-indol-3-yl)-3-chloro-6-hydroxy-[1,4]-benzoquinone] — 1.6-fold lower, 49.9 µM
- Cc1cccc2c(C3=C(O)C(=O)C(c4c(C(C)(C)C)[nH]c5ccccc45)=C(Cl)C3=O)c[nH]c12 [11G, 2-(2-tert-butyl-1H-indol-3-yl)-5-(7-methyl-1H-indol-3-yl)-3-chloro-6-hydroxy-[1,4]-benzoquinone] — 2.4-fold lower, 33.8 µM
- CC(C)(C)c1[nH]c2ccccc2c1C1=C(Cl)C(=O)C(c2c(-c3ccccc3)[nH]c3ccccc23)=C(O)C1=O [11H, 2-(2-tert-butyl-1H-indol-3-yl)-5-(2-phenyl-1H-indol-3-yl)-3-chloro-6-hydroxy-[1,4]-benzoquinone] — 12-fold lower, 6.7 µM

— patent US7057052B2, “Heterocyclic quinones as pharmaceutical agents” (Duke University, priority 2002, dated 2006)
